How the values were obtained:
[1] = system: isolated aortic rings; assay: Aortic ring assay; assay type: cell-based, Sprague Dawley rats; details: instant compound or HGF (100 ng/ml), day 5
From the text: a. Aortic ring assay. Thoracic artery rings from rats are embedded in Matrigel and grown for 5 days in the presence or absence of HGF/SF or compounds of the invention. Treatment with compounds of the invention causes an increased outgrowth from the rings similar to that seen with HGF/SF.
Thoracic aortas from 100 gm Sprague Dawley rats are isolated under sterile conditions and cut into rings of approximately 0.8 to 1.0 mm in length. The rings are embedded in Matrigel in the bottom of 48 well culture plates and instant compound […] or HGF (100 ng/ml, as positive control) was added in […] of serum-free tissue culture medium (Human endothelial-SFM basal growth medium plus 1% bovine serum albumin). An inventive compound or HGF was replenished on day 4; on day 5, the rings were photographed and examined for outgrowths. […] Without wishing to be bound to any particular theory, we propose that inventive compounds are capable of activating proliferation of cells required for angiogenesis.

[2] = system: HUVECs; assay: Nitric oxide production in HUVECs, DAF 2-DA fluorescence; assay type: cell-based, human; details: 24 hours
Protocol: c. […] HUVECs are incubated with either vehicle, HGF/SF, instant compounds, or SNAP for 24 hours, loaded with the nitric oxide-sensitive fluorescence indicator DAF 2-DA and imaged under a laser scanning confocal microscope.
HGF and compounds of the invention may exert their anti-apoptotic effects in part through stimulation of nitric oxide production. We incubated HUVECs with either HGF or instant compounds and measured NO production using the nitric oxide-sensitive fluorescence indicator DAF 2-DA. […] Without wishing to be bound to any particular theory, we propose that the anti-apoptotic activities of both HGF and compounds of the invention may be mediated by nitric oxide production.

[3] = system: C57BL/6 mice; details: earlier studies with HGF; cited from earlier work
[4] = system: MDCK cells; assay: MTT cell viability assay, adriamycin-induced apoptosis; assay type: cell-based
From the text: (§1) a. HGF/SF and instant compounds have significant anti-apoptotic activity in cultured cell lines.
(§2) Using the MTT cell viability assay we tested the ability of compounds of the invention to protect cells from adriamycin-induced apoptosis. […] Adriamycin alone decreased cell viability to 56% of untreated cells.

[5] = system: human hepatic stellate cell line LX2; assay: Antifibrotic activity: collagen I mRNA in LX2 cells, real time PCR; assay type: cell-based; details: serum starved LX2 cells, 24 hours; HGF 100 ng/ml, compounds 12 to 24 ug/ml
Protocol: a. Antifibrotic Activity in Hepatic Stellate Cells. Serum starved (activated) LX2 cells (an immortalized human hepatic stellate cell line) that are treated with HGF/SF or a compound of the invention show a decrease in collagen I mRNA expression, as well as expression of other fibrotic marker genes, related to significant antifibrotic activity.
The antifibrotic effects of HGF and compounds of the invention in the immortalized human hepatic stellate cell line LX2 are determined. Serum starved LX2 cells are treated for 24 hours with HGF at 100 ng/ml and compounds of the invention at doses ranging from 12 to 24 ug/ml. RNA is then isolated and real time PCR was performed to evaluate changes in collagen I mRNA. […] Additional experiments to determine the effects of HGF and compounds on TGFb-1, bPDGF-R and MMP-1 mRNA are also performed to more completely characterize activities of these compounds which can contribute to their antifibrotic effects.

[6] = system: NIH-3T3 cells transfected with c-met receptor; assay: Protection against adriamycin-induced apoptosis, c-met transfected NIH-3T3 cells, MTT assay; assay type: cell-based; details: pre-treated 48 hr with HGF (50 ng/ml) or compound (12 mg/ml), adriamycin (15 mM) 2 hr
Protocol: b. Protection from apoptosis in NIH-3T3 cells transfected with c-met receptor.
NIH3T3 cells were pre-treated with HGF (50 ng/ml) or compound (12 mg/ml) for 48 hr. Cells were then exposed to adriamycin (ADR) (15 mM) for 2 hr, and post-incubated for 48 hr before performing the MTT assay. […] There was no protection from apoptosis by either compound in non-transfected cells lacking the c-met receptor.

[7] = MTT cell viability assay, adriamycin-induced apoptosis; assay type: cell-based; details: dog, MDCK cells, of untreated cells, read-out: cell viability, adriamycin alone
From the text: as §1, §2

Row | Molecule | endothelial cell outgrowth from aortic rings [1] | nitric oxide production (DAF 2-DA fluorescence) [2] | nitric oxide production (DAF 2-DA fluorescence) ([2]; listed as HGF/SF) | vessel area [3] | cell viability after pretreatment, then adriamycin ([4]; adriamycin-induced apoptosis) [%] | cell viability, compound or HGF alone ([4]; without adriamycin) | decrease in collagen I mRNA expression [5] [%] | protection from adriamycin-induced apoptosis (MTT) [6] | viability [7] [%]
1 | HGF: pleiotropic growth factor that stimulates cell growth, cell motility, morphogenesis and angiogenesis | stimulated equivalent endothelial cell outgrowth | stimulate nitric oxide production | significant increase in fluorescence | dose-dependently increases the vessel area | 94 | no effect on cell viability | 70 | protect the cells from adriamycin-induced apoptosis | 
2 | CC(=O)N[C@@H](C(=O)O)C(C)(C)SN=O (racemic) [SNAP, reference compound] |  | significant increase in fluorescence |  |  |  |  |  |  | 
3 | COc1cccc2c1C(=O)c1c(O)c3c(c(O)c1C2=O)C[C@@](O)(C(=O)CO)C[C@@H]3O[C@H]1C[C@H](N)[C@H](O)[C@H](C)O1 [Adriamycin, reference compound] |  |  |  |  |  |  |  |  | 56
